Publication PMC7241120 (2020)

Test system: Pu19m2 (DNA, G4) AAGGGAGGGCGGCGGGACA
Assay: thermal melting
Conditions: 50 mM K+; complex ~60 °C, free unimolecular vG4 ~45 °C

Tm: ~ 15 °C
SMILES: Nc1nc2c(ncn2[C@H]2C[C@H](O)[C@@H](COP(=O)(O)O)O2)c(=O)[nH]1
